Measurements published in patent EP4458352A1, “EICOSAPENTAENOIC ACID ESTER DERIVATIVES FOR THE TREATMENT OF OBESITY” (Technische Universität Dresden, priority 2023, dated 2024).

How the values were obtained:
[1] = system: adrenal glands of mice fed a HFD; assay: FFA measurement (HPLC-MS) in adrenal glands of HFD mice with or without SC-26196; format: in vivo, WT C57BL/6J mice; conditions: HFD with vs without SC-26196; n=8-10 mice per group
Experimental: Six weeks-old male WT C57BL/6J mice were fed for 20 weeks a LFD (D12450B, Research Diets, NJ, USA) or a HFD (D12492, Research Diets, NJ, USA). In some experiments, WT C57BL/6J mice were fed for 8 weeks a HFD and for another 8 weeks a HFD supplemented with SC-26196 (Biorbyt Ltd). SC-26196 was mixed in the HFD at a concentration of 625 mg/kg of diet corresponding to approx. 100 mg/kg of animal weight. In other experiments WT mice were fed for 10 weeks a HFD and for another 10 weeks a HFD supplemented with icosapent ethyl (Vascepa). The content of Vascepa capsules was mixed by Research Diets with the diet at a concentration of 1.125 g/kg icosapent ethyl (corresponding to approx. 180 mg/kg of animal weight). Mice were weighed every week. Glucose and insulin tolerance tests were performed as previously described (20, 21). Three to five mg of hair (2-3 mm close to the skin on the back of the mice) were cut while gently holding the mice without anaesthesia.
Frozen adrenal glands were homogenized in 200 µL PBS-buffer. Lipids were extracted from adrenal lysates or supernatants in chloroform/methanol (Folch's protocol). The extract was evaporated to dryness under stream of nitrogen at 40 °C. The residue was dissolved in 100 µL ethanol. For FFA 50 µL were used. […] The quantification was performed with individual calibration curves using deuterated standards (Cayman Chemical, Ann Arbor, MI).

NCI-H295R cells = assay: Cholesterol and cholesteryl ester content (LC-MS/MS) of mitochondrial and lipid droplet fractions of NCI-H295R cells treated with SC-26196; format: cell-based, Human
Experimental: NCI-H295R cells (obtained from ATCC Cat# CRL-2128) were maintained in DMEM/F12 medium supplemented with 2.5 % Nu-Serum type I (Corning), 1 % Insulin Transferrin Selenium (ITS; Gibco), 50 U/mL penicillin and 50 µg/mL streptomycin. They were treated for 18 h with 10 µM SC-26196 or DMSO. […]
Cells were trypsinized and pelleted by centrifugation (500xg, 5 min, 4 °C). The cells were gently resuspended in homogenization buffer (200 mM mannitol, 50 mM sucrose, 10 mM KCI, […] 25 mM HEPES, pH 7.4, 1 µM aprotinin, 10 µM leupeptin, 20 µM PMSF) and homogenized on ice with 20 strokes of tight Dounce homogenizer. The samples were then centrifuged (800xg, 10 min, 4 °C) to pellet the nuclei. […]
Fractions 10-12 (SDHB-positive) and 4-5 (HSL-positive) were considered as mitochondrial and lipid droplet fractions, respectively. Protein concentration was measured in the mitochondrial and lipid droplet pools with the BCA Protein Assay Kit (Thermo Fisher) and fractions were analyzed for cholesterol and CE concentrations.
For quantification of cholesterol and cholesteryl esters, equal volumes of mitochondria fractions (180 µL) were combined, cholesterol-2,3,4-^13C (5 nmol, […]) and SPLASH®Lipidomix® (3 µL, Avanti Polar Lipids Inc) spiked, and samples incubated for 15 min on ice. […]

## N#CC(CCCN1CCN(/N=C/c2cccnc2)CC1)(c1ccccc1)c1ccccc1 [SC-26196]
[1]
  free PUFA, including ARA, levels in the adrenal glands: reduced
NCI-H295R cells; SC-26196 18 h vs DMSO, forskolin (FSK, 1 µM) for 30 min, SDHB positive fractions
  mitochondrial cholesterol levels upon forskolin stimulation: strong increase in mitochondrial cholesterol levels in control- but not SC-26196-treated cells
NCI-H295R cells; SC-26196-treated cells
  cholesterol and CE in the lipid droplet (HSL positive) fractions: accumulated
